From patent US12378208B2, “N-substituted oseltamivir derivatives with antimicrobial activity” (THE HONG KONG POLYTECHNIC UNIVERSITY, priority 2019, dated 2025)

Molecular target: NA from A/H3N2 (Influenza A virus, UniProt O91745)
Assay: biochemical
Type: biochemical, seasonal A/H3N2
Conditions: not given

NA from A/H3N2, sequence (O91745 whole entry, looked up): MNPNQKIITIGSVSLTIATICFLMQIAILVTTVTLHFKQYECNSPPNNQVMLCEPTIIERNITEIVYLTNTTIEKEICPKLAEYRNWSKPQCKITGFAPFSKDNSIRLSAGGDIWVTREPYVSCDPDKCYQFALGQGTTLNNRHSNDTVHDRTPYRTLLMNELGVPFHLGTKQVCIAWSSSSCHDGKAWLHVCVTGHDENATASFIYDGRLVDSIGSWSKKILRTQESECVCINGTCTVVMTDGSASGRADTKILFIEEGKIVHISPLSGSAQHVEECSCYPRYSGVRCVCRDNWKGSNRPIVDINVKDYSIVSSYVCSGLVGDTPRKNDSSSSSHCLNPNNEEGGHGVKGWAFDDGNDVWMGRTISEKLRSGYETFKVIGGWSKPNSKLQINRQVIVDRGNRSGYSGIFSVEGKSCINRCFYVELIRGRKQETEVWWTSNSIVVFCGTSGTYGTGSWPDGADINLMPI

Row | Compound | % Inhibition (1 nM) | Inhibition rate, 1 μM | Inhibition rate, 10 μM
1 | CCC(CC)O[C@@H]1C=C(C(=O)O)C[C@H](NCc2noc(-c3cccs3)n2)[C@H]1NC(C)=O [Compound S1, (3R,4R,5S)-4-acetamido-3-(pentan-3-yloxy)-5-(((5-(thiophen-2-yl)-1,2,4-oxadiazol-3-yl)methyl)amino)cyclohex-1-ene-1-carboxylic acid] | 0.0 ± 2.2% | – | –
2 | CCC(CC)O[C@@H]1C=C(C(=O)O)C[C@H](NCc2noc(-c3ccc(C(F)(F)F)cc3)n2)[C@H]1NC(C)=O [Compound S2, (3R,4R,5S)-4-acetamido-3-(pentan-3-yloxy)-5-(((5-(4-(trifluoromethyl)phenyl)-1,2,4-oxadiazol-3-yl)methyl)amino)cyclohex-1-ene-1-carboxylic acid] | 8.0 ± 1.7% | – | –
3 | CCC(CC)O[C@@H]1C=C(C(=O)O)C[C@H](NCc2noc(-c3ccc(F)cc3)n2)[C@H]1NC(C)=O [Compound S3, (3R,4R,5S)-4-acetamido-5-(((5-(4-fluorophenyl)-1,2,4-oxadiazol-3-yl)methyl)amino)-3-(pentan-3-yloxy)cyclohex-1-ene-1-carboxylic acid] | 0.0 ± 3.5% | – | –
4 | CCC(CC)O[C@@H]1C=C(C(=O)O)C[C@H](NCc2noc(-c3ccccn3)n2)[C@H]1NC(C)=O [Compound S4] | 17.1 ± 2.0% | – | –
5 | CCC(CC)O[C@@H]1C=C(C(=O)O)C[C@H](NCc2noc(-c3ccc(Br)cc3)n2)[C@H]1NC(C)=O [Compound S5, (3R,4R,5S)-4-acetamido-5-(((5-(4-bromophenyl)-1,2,4-oxadiazol-3-yl)methyl)amino)-3-(pentan-3-yloxy)cyclohex-1-ene-1-carboxylic acid] | 1.7 ± 2.1% | – | –
6 | CCC(CC)O[C@@H]1C=C(C(=O)O)C[C@H](NCc2noc(-c3cccc([N+](=O)[O-])c3)n2)[C@H]1NC(C)=O [Compound S6, (3R,4R,5S)-4-acetamido-5-(((5-(3-nitrophenyl)-1,2,4-oxadiazol-3-yl)methyl)amino)-3-(pentan-3-yloxy)cyclohex-1-ene-1-carboxylic acid] | 18.4 ± 3.6% | – | –
7 | CCC(CC)O[C@@H]1C=C(C(=O)O)C[C@H](NCc2noc(-c3ccccc3)n2)[C@H]1NC(C)=O [Compound S8, (3R,4R,5S)-4-acetamido-3-(pentan-3-yloxy)-5-(((5-phenyl-1,2,4-oxadiazol-3-yl)methyl)amino)cyclohex-1-ene-1-carboxylic acid] | 0.0 ± 2.0% | – | –
8 | CCC(CC)O[C@@H]1C=C(C(=O)O)C[C@H](NCc2noc(-c3ccc4ccccc4c3)n2)[C@H]1NC(C)=O [Compound S9, (3R,4R,5S)-4-acetamido-5-(((5-(naphthalen-2-yl)-1,2,4-oxadiazol-3-yl)methyl)amino)-3-(pentan-3-yloxy)cyclohex-1-ene-1-carboxylic acid] | 1.5 ± 1.2% | – | –
9 | CCC(CC)O[C@@H]1C=C(C(=O)O)C[C@H](NCc2noc(-c3ccccc3C)n2)[C@H]1NC(C)=O [Compound S10, (3R,4R,5S)-4-acetamido-3-(pentan-3-yloxy)-5-(((5-(o-tolyl)-1,2,4-oxadiazol-3-yl)methyl)amino)cyclohex-1-ene-1-carboxylic acid] | 0.5 ± 2.0% | – | –
10 | CCC(CC)O[C@@H]1C=C(C(=O)O)C[C@H](NCc2noc(-c3cc(OC)c(OC)c(OC)c3)n2)[C@H]1NC(C)=O [Compound S11, (3R,4R,5S)-4-acetamido-3-(pentan-3-yloxy)-5-(((5-(3,4,5-trimethoxyphenyl)-1,2,4-oxadiazol-3-yl)methyl)amino)cyclohex-1-ene-1-carboxylic acid] | 3.5 ± 3.1% | – | –
11 | CCC(CC)O[C@@H]1C=C(C(=O)O)C[C@H](NCc2noc(-c3ccc(Cl)cc3)n2)[C@H]1NC(C)=O [Compound S12, (3R,4R,5S)-4-Acetamido-5-(((5-(4-chlorophenyl)-1,2,4-oxadiazol-3-yl)methyl)amino)-3-(pentan-3-yloxy)cyclohex-1-ene-1-carboxylic acid] | 4.01 ± 5.9% | – | –
12 | CCC(CC)O[C@@H]1C=C(C(=O)O)C[C@H](NCc2noc(-c3c(F)cccc3F)n2)[C@H]1NC(C)=O [Compound S13, (3R,4R,5S)-4-acetamido-5-(((5-(2,6-difluorophenyl)-1,2,4-oxadiazol-3-yl)methyl)amino)-3-(pentan-3-yloxy)cyclohex-1-ene-1-carboxylic acid] | 0.0 ± 2.6% | – | –
13 | CCC(CC)O[C@@H]1C=C(C(=O)O)C[C@H](NCc2ccc(-c3ccc(OC)cc3)o2)[C@H]1NC(C)=O [Compound S14, (3R,4R,5S)-4-Acetamido-5-(((5-(4-methoxyphenyl)furan-2-yl)methyl)amino)-3-(pentan-3-yloxy)cyclohex-1-ene-1-carboxylic acid] | 14.7 ± 4.4% | – | –
14 | CCC(CC)O[C@@H]1C=C(C(=O)O)C[C@H](NCc2ccc(-c3ccc(F)cc3)o2)[C@H]1NC(C)=O [Compound S15, (3R,4R,5S)-4-Acetamido-5-(((5-(4-fluorophenyl)furan-2-yl)methyl)amino)-3-(pentan-3-yloxy)cyclohex-1-ene-1-carboxylic acid] | 3.2 ± 3.7% | – | –
15 | CCC(CC)O[C@@H]1C=C(C(=O)O)C[C@H](NCc2ccc(-c3ccccc3C)o2)[C@H]1NC(C)=O [Compound S16, (3R,4R,5S)-4-Acetamido-3-(pentan-3-yloxy)-5-(((5-(o-tolyl)furan-2-yl)methyl)amino)cyclohex-1-ene-1-carboxylic acid] | 8.4 ± 1.8% | – | –
16 | CCC(CC)O[C@@H]1C=C(C(=O)O)C[C@H](NCc2ccc(-c3cc(F)cc(F)c3)o2)[C@H]1NC(C)=O [Compound S17, (3R,4R,5S)-4-Acetamido-5-(((5-(3,5-difluorophenyl)furan-2-yl)methyl)amino)-3-(pentan-3-yloxy)cyclohex-1-ene-1-carboxylic acid] | 3.7 ± 3.8% | – | –
17 | CCC(CC)O[C@@H]1C=C(C(=O)O)C[C@H](NCc2ccc(-c3ccc(OC)c(OC)c3)o2)[C@H]1NC(C)=O [Compound S18, (3R,4R,5S)-4-Acetamido-5-(((5-(3,4-dimethoxyphenyl)furan-2-yl)methyl)amino)-3-(pentan-3-yloxy)cyclohex-1-ene-1-carboxylic acid] | 12.9 ± 1.2% | – | –
18 | CCC(CC)O[C@@H]1C=C(C(=O)O)C[C@H](NCc2ccc(-c3cccc(Cl)c3)o2)[C@H]1NC(C)=O [Compound S19] | 5.5 ± 2.4% | – | –

Row | Compound | % Inhibition (1 nM) | Inhibition rate, 1 μM | Inhibition rate, 10 μM
19 | CCC(CC)O[C@@H]1C=C(C(=O)O)C[C@H](NCc2ccc(-c3ccsc3)o2)[C@H]1NC(C)=O [Compound S20, (3R,4R,5S)-4-Acetamido-3-(pentan-3-yloxy)-5-(((5-(thiophen-3-yl)furan-2-yl)methyl)amino)cyclohex-1-ene-1-carboxylic acid] | 12.5 ± 2.3% | – | –
20 | CCC(CC)O[C@@H]1C=C(C(=O)O)C[C@H](NCc2ccc(-c3cc(Cl)ccc3C)o2)[C@H]1NC(C)=O [Compound S21, (3R,4R,5S)-4-acetamido-5-(((5-(5-chloro-2-methylphenyl)furan-2-yl)methyl)amino)-3-(pentan-3-yloxy)cyclohex-1-ene-1-carboxylic acid] | 4.8 ± 1.1% | – | –
21 | CCC(CC)O[C@@H]1C=C(C(=O)O)C[C@H](NCc2ccc(-c3cccc4c3oc3ccccc34)o2)[C@H]1NC(C)=O [Compound S23, (3R,4R,5S)-4-acetamido-5-(((5-(dibenzo[b,d]furan-4-yl)furan-2-yl)methyl)amino)-3-(pentan-3-yloxy)cyclohex-1-ene-1-carboxylic acid] | 10.9 ± 0.7% | – | –
22 | CCC(CC)O[C@@H]1C=C(C(=O)O)C[C@H](NCc2cc(-c3ccccc3)on2)[C@H]1NC(C)=O [Compound S24] | 1.6 ± 0.4% | – | –
23 | CCC(CC)O[C@@H]1C=C(C(=O)O)C[C@H](NC(=O)c2cnn(Cc3ccccc3)c2)[C@H]1NC(C)=O [OC-001] | – | 7.71% | 32.02%
24 | CCC(CC)O[C@@H]1C=C(C(=O)O)C[C@H](NC(=O)c2cnn(Cc3cccc(OC)c3)c2)[C@H]1NC(C)=O [OC-002] | – | 6.12% | 23.37%
25 | CCC(CC)O[C@@H]1C=C(C(=O)O)C[C@H](NC(=O)c2cnn(Cc3cccc(Cl)c3)c2)[C@H]1NC(C)=O [OC-003] | – | 5.74% | 23.88%
26 | CCC(CC)O[C@@H]1C=C(C(=O)O)C[C@H](NC(=O)c2cnn(Cc3ccc(OC)cc3)c2)[C@H]1NC(C)=O [OC-004] | – | −0.21% | 26.79%
27 | CCC(CC)O[C@@H]1C=C(C(=O)O)C[C@H](NC(=O)c2cnn(Cc3ccccc3Cl)c2)[C@H]1NC(C)=O [OC-005] | – | −1.46% | 18.88%
28 | CCC(CC)O[C@@H]1C=C(C(=O)O)C[C@H](NC(=O)c2cnn(Cc3ccc(C(F)(F)F)cc3)c2)[C@H]1NC(C)=O [OC-006] | – | −2.25% | 21.72%
29 | CCC(CC)O[C@@H]1C=C(C(=O)O)C[C@H](NC(=O)c2cnn(Cc3cccc([N+](=O)[O-])c3)c2)[C@H]1NC(C)=O [OC-007] | – | −5.33% | 12.26%
30 | CCC(CC)O[C@@H]1C=C(C(=O)O)C[C@H](NC(=O)c2cc(-c3ccccc3)n[nH]2)[C@H]1NC(C)=O [OC-008] | – | 5.84% | 42.81%
31 | CCC(CC)O[C@@H]1C=C(C(=O)O)C[C@H](NC(=O)c2cc(-c3ccc(C(F)(F)F)cc3)n[nH]2)[C@H]1NC(C)=O [OC-009] | – | 3.44% | 46.76%
32 | CCC(CC)O[C@@H]1C=C(C(=O)O)C[C@H](NC(=O)c2cnn(-c3ccc(C)cc3)c2)[C@H]1NC(C)=O [OC-010] | – | 8.96% | 52.31%
33 | CCC(CC)O[C@@H]1C=C(C(=O)O)C[C@H](NC(=O)c2cc(-c3ccc(Cl)cc3)n[nH]2)[C@H]1NC(C)=O [OC-011] | – | 14.65% | 50.43%
34 | CCC(CC)O[C@@H]1C=C(C(=O)O)C[C@H](NC(=O)c2cc(-c3ccc(F)cc3)n[nH]2)[C@H]1NC(C)=O [OC-012] | – | 33.62% | 56.45%
35 | CCC(CC)O[C@@H]1C=C(C(=O)O)C[C@H](NC(=O)c2cc(C3CC3)nn2-c2ccccc2)[C@H]1NC(C)=O [OC-013] | – | 19.92% | 30.41%

Same assay, conditions: Table 4, Example 34

Row | Compound | IC50
36 | CCC(CC)O[C@@H]1C=C(C(=O)O)C[C@H](NC(=O)c2cnn(-c3ccc(C)cc3)c2)[C@H]1NC(C)=O [OC-010] | 43.9 µM
37 | CCC(CC)O[C@@H]1C=C(C(=O)O)C[C@H](NC(=O)c2cc(-c3ccc(F)cc3)n[nH]2)[C@H]1NC(C)=O [OC-012] | 11.6 µM
